Laboratory results: patent US5240935A, “Substituted 2-azabicyclo[2.2.2]octane derivatives and compositions and method of use thereof” (Sterling Winthrop Inc., priority 1992, dated 1993)
Counter-ions that a name gives are not always drawn. Like-named read-outs stand apart in the source and are kept apart here.

Assays:
sigma receptors [1] = biological target: T1, sigma receptors (Cavia porcellus, UniProt Q60492); experiment: sigma receptor binding, [^3 H](+)-pentazocine, guinea pig brain membranes; set-up: species or system guinea pig (male Hartley); settings: for Ki: mean of at least two separate determinations in triplicate, EBDA/LIGAND; for inhibition at 10 µM: read-out: Percent Inhibition of [^3 H](+)-pentazocine binding
T1 construct: Brain tissue was prepared from male Hartley guinea pigs; from tissue; host or cells: brain membranes of male Hartley guinea pigs (22,000 x g pellet)
Description: Brain tissue was prepared from male Hartley guinea pigs (Hazelton Labs, Denver, Pa.) which were anesthetized with CO2 and sacrificed by decapitation. All animal care and use procedures were in accord with the "Guide for the Care and Use of Laboratory Animals" (NIH Publ. No. 86-23, 1985). Homogenization was performed in 10 volumes (wt/vol) of 0.32M sucrose with a Brinkmann Polytron at setting 5, 30 sec. The homogenate was centrifuged at 900×g for 10 min at 4° C., and the supernatant was collected and centrifuged at 22,000×g for 20 min at 4° C. The pellet was resuspended in 10 volumes of Tris-HCl buffer (50 mM, pH 7.4), incubated at 37° C. for 30 min, and centrifuged at 22,000×g for 20 min at 4° C. Following this, the pellet was resuspended in Tris buffer and frozen in 5-10 mL aliquots corresponding to a tissue concentration of 100 mg/mL, at -70° C. Binding characteristics of the membranes were stable for at least one month when stored at -70° C.
On the day of the assay, membrane aliquots were thawed, resuspended in fresh Tris-HCl buffer and stored on ice until use. Each assay tube contained 100 μL of [^3 H]-(+)-pentazocine at a final concentration of approximately 0.5 nM or 100 μL of [^3 H]-di(2-tolyl)guanidine (DTG) at a final concentration of approximately 4 nM, 100 μL of various concentrations of the compounds of interest, 500 μL of the tissue suspension and 300 μL of buffer to a final assay volume of 1 mL and a final tissue concentration of approximately 8 mg/tube, corresponding to approximately 0.15 mg protein/tube. Non-specific binding was defined by addition of a final concentration of 1 μM haloperidol to blank tubes for [^3 H](+)-pentazocine assay or by addition of a final concentration of 10 μM haloperidol to blank tubes for [^3 H]DTG assay. All tubes were incubated at 37° C. for 150 min in the [^3 H](+)-pentazocine assay or at 25° C. for 90 min in the [^3 H]DTG assay before termination of the reaction by rapid filtration over Whatman GF/B glass fiber filters that were presoaked in a solution of 0.5% polyethylenimine for at least 1 hr prior to use. Filters were washed with three 4 ml volumes of cold Tris-HCl buffer.
Following addition of scintillation cocktail, samples were allowed to equilibrate for at least 4 hr. The amount of bound radioactivity was determined by liquid scintillation spectrometry using a Beckman LS 5000 TA liquid scintillation counter with an efficiency for tritium of approximately 60%. The results are reported as a percent (%) inhibition of binding at 10 μM.
Scatchard parameters and inhibition constants (Ki values) for the binding of test compounds were also calculated using the EBDA/LIGAND program (McPherson, J. Pharmacol. Meth. 1985, 14, 213-228), purchased from Elsevier/Biosoft, Inc The Ki values are expressed as the mean of at least two separate determinations performed in triplicate.

sigma receptors [2] = experiment: sigma receptor binding, [^3 H]di(2-tolyl)guanidine (DTG), guinea pig brain membranes; set-up: species or system guinea pig (male Hartley); settings: [^3 H]DTG approx. 4 nM, 25° C., 90 min; for Ki: mean of at least two separate determinations in triplicate, EBDA/LIGAND; for Percent Inhibition of [^3 H]DTG binding: at 10 μM
Description: Brain tissue was prepared from male Hartley guinea pigs (Hazelton Labs, Denver, Pa.) which were anesthetized with CO2 and sacrificed by decapitation. […] Homogenization was performed in 10 volumes (wt/vol) of 0.32M sucrose with a Brinkmann Polytron at setting 5, 30 sec. The homogenate was centrifuged at 900×g for 10 min at 4° C., and the supernatant was collected and centrifuged at 22,000×g for 20 min at 4° C. The pellet was resuspended in 10 volumes of Tris-HCl buffer (50 mM, pH 7.4), incubated at 37° C. for 30 min, and centrifuged at 22,000×g for 20 min at 4° C. Following this, the pellet was resuspended in Tris buffer and frozen in 5-10 mL aliquots corresponding to a tissue concentration of 100 mg/mL, at -70° C. Binding characteristics of the membranes were stable for at least one month when stored at -70° C.

[3] = test system: apomorphine-induced climbing; experiment: apomorphine-induced climbing assay; assay type: in vivo, mice (male, Swiss-Webster); settings: Mus musculus, ip; test compound i.p.; apomorphine 5.5 mg/kg s.c.; rated 20-30 min post drug; Dunnett's Test P<0.05; read-out: Apomorphine-induced climbing assay MED (minimal effective dose for inhibition)
Description: (§1) Representative compounds of the invention were tested in vivo in the apomorphine-induced climbing assay and the apomorphine-induced stereotypy assay using the following procedures.
(§2) Male, Swiss-Webster mice (Taconic Farms, Germantown, New York), weight 20-30 grams, were grouped housed in colony facilities for a minimum of two days prior to testing. The colony facility was maintained on a 12 hour light/dark cycle (light: 0600-1800 hours) with water and Agway Prolab 100 rat chow available ad libitum. Each mouse was given an injection of test compound i.p. followed immediately by a s.c. injection of apomorphine 5.5 mg/kg or vehicle. All drugs were administered in a volume of 10 ml/kg body weight. The mice were then placed in individual cylindrical stainless steel climbing cages; 14.5 cm tall, 12 cm in diameter, with walls consisting of 1/16" O.D. bars spaced 0.8-1.0 cm apart, and were allowed to habituate to this environment for 20 minutes. […] Briefly, a (0) was scored for absence of any stereotypic behavior, infrequent stereotypic movements were scored as (1), a (2) was scored for permanent sniffing and a score of (3) indicated intense and continuous stereotypic behavior. Treatment means for the 10 minute totals were calculated for climbing and stereotypy. […] A minimal effective dose (MED) for inhibition was determined for each parameter based on these analyses.

[4] = test system: apomorphine-induced stereotypy; experiment: apomorphine-induced stereotypy assay; assay type: in vivo, mice (male, Swiss-Webster); settings: Mus musculus, ip; test compound i.p.; apomorphine 5.5 mg/kg s.c.; rated 20-30 min post drug; Dunnett's Test P<0.05; read-out: Apomorphine-induced stereotypy assay MED (minimal effective dose for inhibition)
Description: as §1, §2

[5] = [^3 H](+)-pentazocine approx. 0.5 nM, 37° C., 150 min
[6] = at 10 μM, [^3 H](+)-pentazocine approx. 0.5 nM, 37° C., 150 min

T1 sequence (Q60492 whole entry): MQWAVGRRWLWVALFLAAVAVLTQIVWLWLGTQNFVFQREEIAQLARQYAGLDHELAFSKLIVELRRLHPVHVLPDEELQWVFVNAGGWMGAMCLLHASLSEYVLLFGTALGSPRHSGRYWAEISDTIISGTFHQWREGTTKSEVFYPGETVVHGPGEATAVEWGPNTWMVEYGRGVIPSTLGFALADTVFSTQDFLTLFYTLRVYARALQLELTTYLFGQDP

| Compound | Ki (sigma receptors [1]; [5]) [nM] | Ki (sigma receptors [2]) [nM] | inhibition at 10 µM (sigma receptors [1]; [6]) [%] | Percent Inhibition of [^3 H]DTG binding (sigma receptors [2]) [%] | minimal effective dose [3] [µmol/kg] | minimal effective dose [4] [µmol/kg] | inhibition at 10 µM (sigma receptors [1]) [%] |
| --- | --- | --- | --- | --- | --- | --- | --- |
| CCOC(=O)C1CC2(C)C(C)CC1N(Cc1ccccc1)C2C (stereo not shown) [Example 2b, ethyl 3,4,8-trimethyl-2-(phenylmethyl)-2-azabicyclo[2.2.2]octane-6-carboxylate] | 242 | 240 | – | – | 317 | 951 | – |
| CCOC(=O)C1(C(=O)OCC)CC2(C)C(C)CC1N(Cc1ccccc1)C2C (stereo not shown) [Example 2c, diethyl 3,4,8-trimethyl-2-(phenylmethyl)-2-azabicyclo-[2.2.2] octane-6,6-dicarboxylate] | 1190 | 1240 | 79 | 79 | – | – | – |
| CCOC(=O)C1CC23CCCCC2CC1N(Cc1ccccc1)C3C (stereo not shown) [Example 5e, Ethyl 2,3,4,4a,5,6,7,8-octahydro-1-methyl-2-(phenylmethyl)-1H-3,8a-ethanoisoquinoline-10-carboxylate hydrochloride] | 332 | 357 | – | – | – | – | 97 |
| CCOC(=O)C1CC2C(C)NC1CC2C(C)C (stereo not shown) [Example 9e, ethyl 3-methyl-8-isopropyl-2-azabicyclo-[2.2.2]octane-6-carboxylate] | – | – | – | 48 | – | – | 30 |
| CC1CC2C(CO)CC1(C)C(C)N2C (stereo not shown) [Example 10, 2,3,4,8-tetramethyl-2-azabicyclo[2.2.2]octane-6-methanol] | – | – | – | 48 | – | – | 24 |

Now from value to compound, other results behind:

| Ki (sigma receptors [1]; [5]) [nM] | Ki (sigma receptors [2]) [nM] | inhibition at 10 µM (sigma receptors [1]; [6]) [%] | Percent Inhibition of [^3 H]DTG binding (sigma receptors [2]) [%] | Compound | minimal effective dose [3] [µmol/kg] | minimal effective dose [4] [µmol/kg] | inhibition at 10 µM (sigma receptors [1]) [%] |
| --- | --- | --- | --- | --- | --- | --- | --- |
| – | – | 33 | 57 | CC=C1CC2C(C(=O)OCC)CC1C(Cc1ccccc1)N2Cc1ccccc1 (stereo not shown) [Example 3e, ethyl 2,3-di(phenylmethyl)-8-ethylidene-2-azabicyclo-[2.2.2]octane-6-carboxylatetrihydrochloride hydrobromide] | – | – | – |
| 2960 | 2880 | 72 | 75 | CCC1CC2C(C(C)(C)O)CC1C(Cc1ccccc1)N2C (stereo not drawn) [Example 4e, 3-(phenylmethyl)-8-ethyl-2,α,α-trimethyl-2-azabicyclo[2.2.2]octane-6-methanol] | – | – | – |
| 5950 | 2710 | 63 | 75 | CCOC(=O)C1(SC)CC2(C)C(C)CC1N(C)C2C (stereo not shown) [Example 6, ethyl 2,3,4,8-tetramethyl-6-(methylthio)-2-azabicyclo[2.2.2]octane-6-carboxylate] | – | – | – |
| 6060 | 6110 | 59 | – | CC1CC2C(C(C)(C)O)CC1(C)C(C)N2Cc1ccccc1 (stereo not drawn) [Example 7, α,α,3,4,8-pentamethyl-2-(phenylmethyl)-2-azabicyclo[2.2.2]octane-6-methanol] | – | – | – |
| 9820 | 6470 | – | 29 | CCOC(=O)C1(C)CC2(C)C(C)CC1N(Cc1ccccc1)C2C (stereo not shown) [Example 8a, ethyl 2-(phenylmethyl)-3,4,6,8-tetramethyl-2-azabicyclo[2.2.2]octane-6-carboxylate] | – | – | – |
| 8880 | 4560 | 47 | 65 | CC(=O)C1(C)CC2(C)C(C)CC1N(Cc1ccccc1)C2C (stereo not shown) [Example 8b, 1-[3,4,6,8-tetramethyl-2-(phenylmethyl) -2-azabicyclo[2.2.2]oct-6-yl]ethanone] | – | – | – |
| 141 | 75.5 | – | – | CCOC(=O)C1CC2C(C(C)C)CC1N(Cc1ccccc1)C2C (stereo not shown) [Example 9f, ethyl 3-methyl-8-(isopropyl)-2-(phenylmethyl)-2-azabicyclo[2.2.2]octane-6-carboxylate] | 304 | 304 | – |
| 2620 | 1010 | 77 | 86 | CC(=O)C1CC2C(C(C)C)CC1N(Cc1ccccc1)C2C (stereo not shown) [Example 11b, 1-[3-methyl-8-isopropyl-2-(phenylmethyl)-2-azabicyclo[2.2.2]octan-6-yl]-ethanone] | – | – | – |
